Measured values from patent US12357711B2, “PSMA binding dual mode radiotracer and therapeutic” (Technische Universität München, priority 2019, dated 2025).
“And” between values parts separate entries of the source, which are not always exact repeats. Equal entries are not always repeated. Where two headings read alike, the source gives them in different places.

How the values were obtained:
PSMA = target: T1, PSMA (Homo sapiens, UniProt Q04609); experiment: Determination of IC50: PSMA affinity, competitive binding on LNCaP cells against ([125I]I-BA)KuE; conditions: LNCaP cells, [125I]IB-KuE c=0.2 nM, 1 h, 4° C.
T1 construct: endogenous in cells; host or cells: LNCaP cells
Description: Data are expressed as mean±SD (n=3, in 3 different experiments).
After removal of the culture medium, the cells were treated once with 500 μL of HBSS (Hank's balanced salt solution, Biochrom, Berlin, Germany, with addition of 1% bovine serum albumin (BSA)) and left 15 min on ice for equilibration in 200 μL HBSS (1% BSA). […] Quantification of bound and free radioligand was accomplished in a γ-counter.

[1] = test system: PSMA-positive LNCaP cells; experiment: Internalization in LNCaP cells, normalized to ([125I]I-BA)KuE; type: cell-based; conditions: LNCaP cells, 1 hour, 37° C.
Description: Data is corrected for non-specific binding ([…]) and expressed as mean±SD (n=3).
Subsequent to the removal of the culture medium, the cells were washed once with 500 μL DMEM-F12 (5% BSA) and left to equilibrate for at least 15 min at 37° C. in 200 μL DMEM-F12 (5% BSA). Each well was treated with either 25 μL of either DMEM-F12 (5% BSA) or a 100 μM PMPA solution for blockade. Next, 25 μL of the ^68Ga/^18F-labeled PSMA inhibitor (5.0 nM) was added and the cells incubated at 37° C. for 60 min. The experiment was terminated by placing the 24-well plate on ice for 3 min and consecutive removal of the medium. Each well was rinsed with 250 μL HBSS and the fractions from these first two steps combined, representing the amount of free radioligand. Removal of surface bound activity was accomplished by incubation of the cells with 250 μL of ice-cold PMPA (10 μM in PBS) solution for 5 min and rinsed again with another 250 μL of ice-cold PBS. The internalized activity was determined by incubation of the cells in 250 μL 1 M NaOH and the combination with the fraction of a subsequent wash step with 250 μL 1.0 M NaOH. Each experiment (control and blockade) was performed in triplicate. Free, surface bound and internalized activity was quantified in a γ-counter. […] Data were corrected for non-specific internalization and normalized to the specific-internalization observed for the radioiodinated reference compound.

human serum albumin = target: T2, human serum albumin (Homo sapiens, UniProt P02768); experiment: HSA binding on Chiralpak HSA column; type: in vitro ADME; conditions: Chiralpak HSA column (50 × 3 mm, 5 μm)
T2 construct: purchased H13H-2433
Description: The mobile phase (A: NH4OAc, 50 mM in water, pH 7 and B: isopropanol) was freshly prepared for each experiment and only used for one day. The column was kept at room temperature and each run was stopped after detection of the signal to reduce the acquisition time. All substances were dissolved in a 0.5 mg/ml concentration in 50% 2-propanol and 50% 50 mM pH 6.9 ammonium acetate buffer. […] All nine reference substances were injected consecutively to establish a non-linear regression with Origin Pro 2016G.

[2] = test system: LNCaP tumor-bearing SCID mice; experiment: Biodistribution at 1 h p.i.; type: in vivo
Description: FIG. 10: Biodistribution (in % ID/g) of ^18E-labeled rhPSMA tracers at 1 h p.i in LNCaP tumor-bearing SCID mice. Data are expressed as mean±SD (n=4 for rhPSMA7.1, n=5 for 7.2, n=4 for 7.3, n=5 for 7.4 and n=3 for 7-rac).

[3] = test system: LNCaP tumor-bearing SCID mice; experiment: Biodistribution at 1 h p.i. with competition (co-injected PMPA); type: in vivo; conditions: co-injected with PMPA (8 mg/kg)
Description: FIG. 11: Biodistribution [% ID/g] of ^18F-rhPSMAs co-injected with PMPA (8 mg/kg) at 1 h p.i in LNCaP tumor-bearing SCID mice. Data are expressed as mean±SD (n=3).

[4] = test system: LNCaP tumor bearing mouse; experiment: Radio-HPLC quantification of relative changes of each rhPSMA7 isomer after [18F]rhPSMA7-rac, 30 min p.i.; type: in vivo, mice; conditions: blood, liver, kidney, urine, 30 min p.i. of [18F][natGa]rhPSMA7-rac
Description: Analytical reversed-phase high pressure chromatography (RP-HPLC) were performed using Shimadzu gradient systems (Shimadzu Deutschland GmbH, Neufahrn, Germany), equipped with a SPD-20A UV/Vis detector (220 nm, 254 nm). […] Eluents for all HPLC operations were water (solvent A) and acetonitrile (solvent B), both containing 0.1% trifluoroacetic acid. […] The gradient for all HPLC operations was: 5% B isocratic 0-3 min, 25-35% B 3-43 min, 95-95% B 43-48 min.
In order to quantify the relative uptake of each isomer (rhPSMA-7.1-7.4), a tumor-bearing male CB-17-SCID mouse was injected with the racemic mixture of rhPSMA-7 (180-280 MBq, SA=247-349 GBq/μmol, produced at the Klinikum rechts der Isar in a fully automated procedure). […] The eluate was diluted with water and analysed by radio-HPLC. […]
Tumour and kidneys were separately homogenised in the tissue homogeniser with 1 mL of extraction buffer (850 μL 1 M HEPES pH7.4, 100 μL 20 mM PMPA and 100 μL 1M NaCl) for 30 min. […] The eluate of each organ was diluted with water and analysed by radio-HPLC.
The organs (tumour, kidney, liver) were separately homogenised in a 2 mL tube together with 3 grinding balls (3 mm diameter) and 1 mL of extraction buffer (850 μL 1 M HEPES pH7.4, 100 μL 20 mM PMPA and 100 μL 1M NaCl) for 10 min at 30 Hz. […] The eluate of each organ was diluted with water and analysed by radio-HPLC. […]

T1 sequence (Q04609 whole entry): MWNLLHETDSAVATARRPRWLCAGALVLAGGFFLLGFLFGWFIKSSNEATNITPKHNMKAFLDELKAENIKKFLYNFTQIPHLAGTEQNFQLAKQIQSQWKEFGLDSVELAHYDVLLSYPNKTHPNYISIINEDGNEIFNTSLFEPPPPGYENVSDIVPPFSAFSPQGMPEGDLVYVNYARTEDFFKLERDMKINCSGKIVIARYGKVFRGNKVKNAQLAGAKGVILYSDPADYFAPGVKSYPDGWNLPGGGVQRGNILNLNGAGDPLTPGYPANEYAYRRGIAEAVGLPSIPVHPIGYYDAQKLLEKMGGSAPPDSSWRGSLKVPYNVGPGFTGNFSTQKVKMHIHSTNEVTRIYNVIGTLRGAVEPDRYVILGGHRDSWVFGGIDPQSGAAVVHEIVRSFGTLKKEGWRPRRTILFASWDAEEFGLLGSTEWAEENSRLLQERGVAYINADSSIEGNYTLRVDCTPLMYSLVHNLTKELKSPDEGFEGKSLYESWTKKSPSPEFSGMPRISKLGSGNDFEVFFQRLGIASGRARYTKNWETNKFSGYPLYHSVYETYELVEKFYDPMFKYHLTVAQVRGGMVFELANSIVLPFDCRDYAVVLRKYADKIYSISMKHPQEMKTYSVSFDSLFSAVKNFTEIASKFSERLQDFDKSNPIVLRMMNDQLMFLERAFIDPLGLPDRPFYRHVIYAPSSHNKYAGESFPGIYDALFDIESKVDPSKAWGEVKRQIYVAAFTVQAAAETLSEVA
T2 sequence (P02768 25-609): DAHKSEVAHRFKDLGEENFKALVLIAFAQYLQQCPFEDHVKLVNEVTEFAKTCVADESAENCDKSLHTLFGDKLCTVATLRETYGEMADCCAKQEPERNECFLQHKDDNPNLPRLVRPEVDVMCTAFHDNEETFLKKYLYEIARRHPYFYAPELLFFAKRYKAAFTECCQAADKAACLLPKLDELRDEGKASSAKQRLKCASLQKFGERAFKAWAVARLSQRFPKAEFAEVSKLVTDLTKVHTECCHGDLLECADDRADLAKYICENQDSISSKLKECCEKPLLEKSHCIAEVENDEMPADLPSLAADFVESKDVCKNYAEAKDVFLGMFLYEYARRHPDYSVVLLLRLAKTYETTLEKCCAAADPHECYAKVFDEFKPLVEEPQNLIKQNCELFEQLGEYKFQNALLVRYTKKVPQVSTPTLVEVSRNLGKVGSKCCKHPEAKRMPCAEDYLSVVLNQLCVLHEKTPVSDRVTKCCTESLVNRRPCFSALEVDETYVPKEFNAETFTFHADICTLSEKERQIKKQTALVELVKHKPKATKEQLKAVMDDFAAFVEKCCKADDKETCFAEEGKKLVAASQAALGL

## CC(C)(C)[Si](F)(c1ccc(C(=O)NC[C@@H](NC(=O)CC[C@H](C(=O)O)N2CCN(CC(=O)[O-])CCN(CC(=O)[O-])CCN(CC(=O)[O-])CC2)C(=O)N[C@H](CCCCNC(=O)CCC(=O)NCCC[C@@H](NC(=O)CC[C@H](NC(=O)N[C@@H](CCC(=O)O)C(=O)O)C(=O)O)C(=O)O)C(=O)O)cc1)C(C)(C)C.[Ga+3] [rhPSMA7.1, [^19F][^natGa]D-Dap-R-DOTAGA-rhPSMA7]
PSMA; HBSS+1% BSA, single measurements, read-out: individual IC50 measurements
  IC50: 5.04 nM and 7.11 nM and 8.31 nM and 4.97 nM and 6.44 nM and 8.74 nM and 6.91 nM and 7.27 nM
PSMA; mean of individual measurements, read-out: IC50 Mean
  IC50: 6.85 nM
[1]; c=0.5 nM, single measurements
  individual internalization rates: 77.5 % of [^125I]IB-KuE and 61.8 % of [^125I]IB-KuE and 70.6 % of [^125I]IB-KuE and 68.0 % of [^125I]IB-KuE and 67.9 % of [^125I]IB-KuE and 71.5 % of [^125I]IB-KuE
[1]; mean
  internalization rate Mean: 69.55 % of [^125I]IB-KuE
Human serum albumin
  HSA Binding: 97.7%
[2]
  Biodistribution adrenals: 2.0 ± 0.25 % ID/g
  Biodistribution blood: 0.53 ± 0.13 % ID/g
  Biodistribution bone: 0.50 ± 0.31 % ID/g
  Biodistribution heart: 0.53 ± 0.03 % ID/g
  Biodistribution intestine: 0.30 ± 0.16 % ID/g
  Biodistribution kidneys: 220 ± 24.8 % ID/g
  Biodistribution liver: 0.75 ± 0.62 % ID/g
  Biodistribution lung: 1.1 ± 0.21 % ID/g
  Biodistribution muscle: 0.32 ± 0.30 % ID/g
  Biodistribution pancreas: 0.45 ± 0.12 % ID/g
  Biodistribution spleen: 20.0 ± 4.2 % ID/g
  Biodistribution stomach: 0.28 ± 0.17 % ID/g
[2]; LNCaP tumor
  Biodistribution tumor: 14.1 ± 4.1 % ID/g
[3]
  Biodistribution adrenals: 0.003 ± 0.004 % ID/g
  Biodistribution blood: 0.86 ± 0.40 % ID/g
  Biodistribution bone: 0.33 ± 0.24 % ID/g
  Biodistribution heart: 0.37 ± 0.16 % ID/g
  Biodistribution intestine: 0.66 ± 0.32 % ID/g
  Biodistribution kidneys: 10.9 ± 2.5 % ID/g
  Biodistribution liver: 0.43 ± 0.07 % ID/g
  Biodistribution lung: 0.85 ± 0.29 % ID/g
  Biodistribution muscle: 0.17 ± 0.15 % ID/g
  Biodistribution pancreas: 0.16 ± 0.10 % ID/g
  Biodistribution spleen: 0.21 ± 0.08 % ID/g
  Biodistribution stomach: 0.97 ± 0.81 % ID/g
[3]; LNCaP tumor
  Biodistribution tumor: 0.94 ± 0.22 % ID/g
[4]
  percentage change of isomer in sample with respect to its proportion in the injected solution: largest positive percentage change
